# Source: patent publication US8895579B2, “Heterotricyclic AMPA receptor antagonists for treatment of epilepsy, pain, and other neurological disorders and diseases” (Northwestern University, priority 2010, dated 2014)
# Several values for one entry are separate records, joined by “and”; a condition that tells them apart may be missing. Equal entries are not always repeated.
# Experiments:
# GluK2a = biological target: T1, GluK2a (Rattus norvegicus, UniProt P42260); assay: [3H]-KA radioligand binding, membranes of HEK293-T/17 cells expressing GluK2a; settings: 10 nM [3H]-KA, 1 h at 4° C., read-out: [3H]KA bound as percent of total (specific) binding in absence of competing ligand
# T1 construct: myc; expressed in transfected cells; host or cells: HEK293-T/17 (CRL-11268)
# Protocol: (§1) Radioligand binding. HEK293-T/17 cells were transfected with 5 μg of iGluR cDNA in 100 mm^2 culture dishes. Two days post transfection, the plates were washed twice with ice-cold Dulbecco's phosphate-buffered saline (DPBS) and then incubated with 50 mM Tris (pH 7.4) and 1 mM EDTA for three minutes on ice. Cells were collected and centrifuged for five minutes at 800 g at room temperature. The cell pellet was homogenized in 50 mM Tris (pH 7.4) containing 320 mM sucrose (homogenization buffer, HB) on ice using a glass dounce homogenizer and centrifuged at 4° C. for 10 minutes at 800 g. The supernatant, containing the membrane fragments, was saved and the remaining pellet containing nuclei and unbroken cells was resuspended in HB. This homogenization process was repeated two more times and after collection of the final resulting supernatant, the remaining pellet was discarded. The collected supernatants were centrifuged at 4° C. for 20 minutes at 20000 g and the resulting supernatant was discarded leaving a membrane-containing pellet. […] Non-specific binding was determined as the amount of radioligand bound in the presence of a saturating concentration of glutamate (1 mM). Total binding was determined as the amount of radioligand bound in the absence of any competing ligands minus the non-specific binding. […]
# GluA2 = biological target: T2, GluA2 (Rattus norvegicus, UniProt P19491); assay: [3H]-AMPA radioligand binding, membranes of HEK293-T/17 cells expressing GluA2; settings: 100 μM; 20 nM [3H]-AMPA; 1 h at 4° C.
# T2 construct: expressed in transfected cells; host or cells: HEK293-T/17 (CRL-11268), membranes
# Protocol: as §1
# [1] = biological target: T3, heteromeric GluA1/GluA2 AMPA receptor (Rattus norvegicus, UniProt P19490+P19491); assay: Whole-cell patch clamp of recombinant GluA1/GluA2 receptors in HEK293-T/17 cells; format: cell-based
# T3 construct: expressed in transfected cells; host or cells: HEK293-T/17 (CRL-11268)
# Protocol: Cell Culture and Transfection. Human embryonic kidney cells expressing T-antigen, clone 17 (HEK293-T/17) (CRL-11268) were cultured at 37° C. with 5% CO2 in DMEM, including 100 μg/mL penicillin, 100 μg/mL streptomycin, and 10% heat-inactivated fetal bovine serum. Cells were split twice per week. For transfection, HEK293-T/17 cells were plated at 3×10^4 cells/cm^2 for pharmacology experiments and 5×10^3 cells/cm^2 for physiology experiments in fresh medium 24 h prior to transfection. Cells were transfected with AMPA or KA receptor plasmid cDNAs using Mirus Trans-IT transfection reagent (Minus Bio Corporation, Madison, Wis.) at a ratio of 1 μg cDNA: 3 μL Trans-1T reagent and maintained in transfection medium overnight followed by a media change the next day. Transfected cells were maintained in this medium until the experiment was conducted (48-72 h total post transfection).
# Electrophysiology. For analysis of recombinant receptors, HEK293-T/17 cells were co-transfected with 0.2 μg of iGluR cDNA and 0.05 μg of eGFP. For heterologous GluA1/GluA2 receptors, the GluA1:GluA2 cDNA ratio was 1:6. Two to three days post-transfection, eGFP-expressing cells were lifted from the cover slip and voltage clamped in whole cell mode. The internal solution contained (in mM) 30 CsF, 110 CsCl, 10 HEPES, 4 NaCl, 5 EGTA and 0.5 CaCl2 (pH 7.3), while the extracellular solution contained (in mM) 140 NaCl, 10 glucose, 10 Cs-HEPES, 3 KCl, 2 CaCl2 and 1 MgCl2 (pH 7.3). Borosilicate patch electrodes were pulled and fire polished to 2-3 MO resistance. Lifted cells were maintained in a laminar stream of extracellular solution from a triple-barreled flow pipe, which was rapidly translated using a piezoceramic bimorph for fast application of glutamate or kainate alone or in combination with various antagonists (the 10-90% rise time of glutamate-evoked currents was ˜1 ms). IKM compounds were applied for three minutes with analysis performed on the final one minute of drug application.
# Statistical analysis. At least three separate experiments were performed for each assay. […]
# GluA1 = biological target: T4, GluA1 (Rattus norvegicus, UniProt P19490); assay: [3H]-AMPA radioligand binding, membranes of HEK293-T/17 cells expressing GluA1; settings: 100 μM; 20 nM [3H]-AMPA; 1 h at 4° C.
# T4 construct: expressed in transfected cells; host or cells: HEK293-T/17 (CRL-11268)
# Protocol: as §1
# T3 sequence (P19490 19-907 isoform P19490-2 limits assumed): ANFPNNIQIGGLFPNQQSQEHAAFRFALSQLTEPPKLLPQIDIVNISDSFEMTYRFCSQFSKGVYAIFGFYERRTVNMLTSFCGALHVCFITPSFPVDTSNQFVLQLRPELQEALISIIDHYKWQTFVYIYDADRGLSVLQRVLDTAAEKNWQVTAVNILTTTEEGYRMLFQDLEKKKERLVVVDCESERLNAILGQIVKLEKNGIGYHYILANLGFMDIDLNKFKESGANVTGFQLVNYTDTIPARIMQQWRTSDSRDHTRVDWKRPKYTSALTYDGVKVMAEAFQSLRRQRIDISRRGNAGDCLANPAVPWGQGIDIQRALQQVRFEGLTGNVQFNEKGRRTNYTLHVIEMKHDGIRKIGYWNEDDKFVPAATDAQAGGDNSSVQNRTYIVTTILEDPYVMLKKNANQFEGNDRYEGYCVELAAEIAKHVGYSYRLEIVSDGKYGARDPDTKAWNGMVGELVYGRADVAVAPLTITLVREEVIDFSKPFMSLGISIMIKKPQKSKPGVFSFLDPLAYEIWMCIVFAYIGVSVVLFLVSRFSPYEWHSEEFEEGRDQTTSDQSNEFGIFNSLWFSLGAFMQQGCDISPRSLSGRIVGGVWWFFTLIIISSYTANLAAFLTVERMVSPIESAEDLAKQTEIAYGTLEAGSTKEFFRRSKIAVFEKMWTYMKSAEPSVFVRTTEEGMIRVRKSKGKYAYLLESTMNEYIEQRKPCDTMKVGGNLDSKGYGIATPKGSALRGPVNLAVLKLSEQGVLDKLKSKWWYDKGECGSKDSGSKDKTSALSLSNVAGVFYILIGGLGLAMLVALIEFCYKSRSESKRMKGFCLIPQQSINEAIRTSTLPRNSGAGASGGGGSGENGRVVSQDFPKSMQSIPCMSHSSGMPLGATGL
# T3 sequence (P19491 22-883 isoform P19491-2 limits assumed): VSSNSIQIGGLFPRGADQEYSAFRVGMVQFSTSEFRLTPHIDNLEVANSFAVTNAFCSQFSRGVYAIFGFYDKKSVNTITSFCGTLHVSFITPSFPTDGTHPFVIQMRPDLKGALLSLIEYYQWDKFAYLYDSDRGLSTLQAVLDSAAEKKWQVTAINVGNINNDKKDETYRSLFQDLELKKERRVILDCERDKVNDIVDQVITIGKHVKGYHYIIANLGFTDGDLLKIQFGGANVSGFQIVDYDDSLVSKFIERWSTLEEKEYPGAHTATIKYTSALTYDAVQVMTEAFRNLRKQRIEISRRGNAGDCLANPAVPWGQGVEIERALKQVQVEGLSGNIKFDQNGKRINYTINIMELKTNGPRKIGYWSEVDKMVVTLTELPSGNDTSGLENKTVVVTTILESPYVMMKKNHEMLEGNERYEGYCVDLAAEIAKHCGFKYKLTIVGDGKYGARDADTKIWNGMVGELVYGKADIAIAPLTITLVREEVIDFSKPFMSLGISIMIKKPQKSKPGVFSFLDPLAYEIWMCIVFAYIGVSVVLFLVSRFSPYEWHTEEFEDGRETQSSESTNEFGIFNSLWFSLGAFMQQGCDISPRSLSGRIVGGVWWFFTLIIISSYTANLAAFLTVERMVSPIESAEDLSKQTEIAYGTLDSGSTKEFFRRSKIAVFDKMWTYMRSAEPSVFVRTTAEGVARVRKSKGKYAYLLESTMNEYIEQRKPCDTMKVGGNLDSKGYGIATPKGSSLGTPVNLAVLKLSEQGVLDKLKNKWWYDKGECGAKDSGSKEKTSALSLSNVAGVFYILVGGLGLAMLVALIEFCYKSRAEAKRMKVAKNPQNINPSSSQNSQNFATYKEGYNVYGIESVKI
# T4 sequence (P19490 19-907 isoform P19490-2 limits assumed): as the sequence (P19490 19-907 isoform P19490-2 limits assumed) above
# T1 sequence (P42260 32-908): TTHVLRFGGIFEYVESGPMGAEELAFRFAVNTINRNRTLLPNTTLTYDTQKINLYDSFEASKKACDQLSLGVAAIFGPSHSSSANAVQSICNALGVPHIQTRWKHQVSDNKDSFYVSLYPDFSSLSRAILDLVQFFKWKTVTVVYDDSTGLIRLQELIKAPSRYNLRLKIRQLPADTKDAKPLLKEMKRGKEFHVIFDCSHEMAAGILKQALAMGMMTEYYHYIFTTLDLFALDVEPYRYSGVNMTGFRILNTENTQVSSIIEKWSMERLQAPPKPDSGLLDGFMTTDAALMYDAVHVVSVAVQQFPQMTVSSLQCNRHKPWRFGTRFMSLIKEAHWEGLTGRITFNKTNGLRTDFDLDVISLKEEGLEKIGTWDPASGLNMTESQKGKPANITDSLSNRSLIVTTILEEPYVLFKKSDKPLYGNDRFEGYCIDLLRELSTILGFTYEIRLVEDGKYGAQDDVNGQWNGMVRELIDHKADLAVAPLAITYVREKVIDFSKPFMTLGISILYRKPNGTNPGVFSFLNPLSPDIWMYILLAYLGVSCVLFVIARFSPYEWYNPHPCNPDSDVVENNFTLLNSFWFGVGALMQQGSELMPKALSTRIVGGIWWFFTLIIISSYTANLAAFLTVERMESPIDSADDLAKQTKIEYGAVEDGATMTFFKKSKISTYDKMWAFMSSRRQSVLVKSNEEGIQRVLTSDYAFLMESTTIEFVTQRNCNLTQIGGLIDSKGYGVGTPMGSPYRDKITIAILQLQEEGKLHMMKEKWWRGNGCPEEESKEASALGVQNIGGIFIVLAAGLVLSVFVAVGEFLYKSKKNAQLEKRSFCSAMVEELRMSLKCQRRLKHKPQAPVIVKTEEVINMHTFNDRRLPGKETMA
# T2 sequence (P19491 22-883 isoform P19491-2 limits assumed): as the sequence (P19491 22-883 isoform P19491-2 limits assumed) above
smiles,measurement,setting,value
O=C(O)C[C@@]12O[C@H]3C=CCN[C@H]3C1CN[C@H]2C(=O)O (stereo partly drawn) [IKM-159],activity at 100 µM,GluK2a,98 ± 4%
same,[3H]AMPA bound as percent of total (specific) binding in absence of competing ligand,GluA2,107±5%
same,IC50,[1],26 ± 2 µM
same,GluA1/GluA2 peak amplitude as percent of basal peak amplitude,"[1]; 30 μM, 10 mM glutamate",56±5%
same,reduction in GluA1/GluA2 peak current amplitude,"[1]; 30 μM, 10 mM glutamate",44±5%
same,[3H]AMPA bound as percent of total (specific) binding in absence of competing ligand,GluA1,135±23% and 134±23%
